Tested on: SMARTCAR-MTH1-wt-HiBiT (Jurkat.7 cells)
Experiment: HiBit Lytic Assay (HiBit DC50, MTH1 degraders of Table 2)
Type: cell-based, human
Details: Jurkat.7 SMARTCAR-MTH1-wt-HiBiT cells, compound treatment time 4 hr, 11-point half log dose response
Procedure: Example 3. HiBit Lytic Assay
• Compound is made at 10 mM, half log dilution, 11 points. • MDR plates can also be ordered from Frontier with same format. • 1. Barcode a 384LDV plate (384-well Low Dead Volume Microplate, Labcyte LP-0200) (Echo compatible) on the left side. • 2. Transfer 13.6 μL of 10 mM compound into column 1 of LDV plate (Labcyte). • 3. Fill column 2-11 and column 23 of MDR plate with 9.30 μL of DMSO. • 4. Serial dilute 3.16 fold from column 1 to 2 by transferring 4.30 μL from column 1 to column 2, and so on to column 11. *Change tip in every dilution to prevent compound carryover effect! • 5. Seal the plate with Plate Sealer, then store the MDR plate at room temperature for short term storage and in −20° C. for long term storage.
• Cells are treated with 30 nL of each compound at 10 mM, half log dilution, 11 points with final concentration of 1000 nM or 833 nM, half log dilution, 11 points, in duplicates. Final DMSO concentration is 0.1%. • 1. Barcode the plates made on the left side and label the plates with silver marker. • 2. Dispense with the following scheme: • a. 30 nL of compound into corresponding wells in cell plates via Echo550 with “MDR32_HiBiT16_30 nL”. Top concentration will be 1000 nM. • 3. Seal the plate with Plate Sealer.
• Cells are dispensed at density specified in Cell Line Table in 384-well microplate. • 1. Culture cells to between 50-80% of confluence in sterile culture flasks of appropriate size. • 2. For Adherent Cell Lines: • a. Aspirate off growth media in culture flask, and wash off the Phenol Red media with 5 mL of 1×PBS. • b. Add 5 mL of Trypsin to the cells, incubate at 37° C. for 5 minutes. • c. Add 5 mL of growth media to the trypsinzed cells, and resuspend. • 3. Remove 10 μL of cells, and resuspend the cells with 10 μL of Trypan Blue. Insert the solution to counting chamber slide, and count the cells via cell counter. • 4. Adjust the cell concentration to specified plating density, and strain the cells with cell strainer. • 5. Dispense the cells via E1-ClipTip™ Electronic Multichannel Pipettes or Multidrop™ Combi Reagent Dispenser with Standard tube dispensing cassette: • a. Prime the cassette with 10-20 mL of ddH2O. • b. Prime the cassette with 10-20 mL of cells. • c. Dispense the cells at low speed for 30 μL/well in Corning® 384 Well Low Flange Black Flat Bottom Polystyrene TC-Treated Microplate. • d. Wash the cassette with 10-20 mL of ddH2O, follow by 10-20 mL of 70% EtOH, then again with 10-20 mL of ddH2O. • 6. Incubate the plates at 37° C.×compound treatment time.
• 1. If not already, bring Nano-Glo® HiBiT Lytic Buffer to room temperature. • 2. Determine the amount of reagent needed. A volume of reagent equal to the volume of media in the well should be added (i.e. 30 μL of cells will need 30 μL of HiBiT Lytic reagent). • 3. Into a given volume of buffer, dilute the substrate 50-fold and the LgBiT protein 100-fold. For example, to make 10 ml of reagent, add the following: • 10 ml Nano-Glo® HiBiT Lytic Buffer • 200 μl Nano-Glo® HiBiT Lytic Substrate • 100 μl LgBiT Protein • The reagent should be reconstituted immediately before use. However, once reconstituted, it should take about 4 hours for the activity to decrease 10%. • 4. Cool down the cell plate to room temperature for 10-15 minutes without lid. • 5. Dispense the HiBiT Lytic Reagent via E1-ClipTip™ Electronic Multichannel Pipettes or Multidrop™ Combi Reagent Dispenser with Standard tube dispensing cassette: • a. Prime the cassette with 10-20 mL of ddH2O. • b. Prime the cassette with 10-20 mL of CTG 2.0. • c. Dispense the HiBiT Lytic Reagent at medium speed for 30 μL/well in cell plate to column 1-23 (column 24 will be used as plate background). • d. Wash the cassette with 10-20 mL of ddH2O, follow by 10-20 mL of 70% EtOH, then again with 10-20 mL of ddH2O. • 6. Incubate the cell plate at room temperature for 10 minutes without lid. • 7. […]

Compound	DC50 [nM]
CNC(=O)c1cnc2cc(C(F)(F)F)c(-c3ccc(C(=O)NCCCCNC(=O)COc4cccc5c4C(=O)N(C4CCC(=O)NC4=O)C5=O)c(F)c3)cc2c1Nc1ccccc1 (stereo not drawn) [Compound 379, 6-(4-((4-(2-((2-(2,6-dioxopiperidin-3-yl)-1,3-dioxoisoindolin-4-yl)oxy)acetamido)butyl)carbamoyl)-3-fluorophenyl)-N-methyl-4-(phenylamino)-7-(trifluoromethyl)quinoline-3-carboxamide]	< 100
CNC(=O)c1cnc2cc(OC)c(-c3ccc(C(=O)NCCCCNC(=O)[C@@H](C)Nc4cccc5c4C(=O)N(C4CCC(=O)NC4=O)C5=O)nc3)cc2c1Nc1ccccc1 (stereo partly drawn) [Compound 382, 6-(6-((4-((2R)-2-((2-(2,6-dioxopiperidin-3-yl)-1,3-dioxoisoindolin-4-yl)amino)propanamido)butyl)carbamoyl)pyridin-3-yl)-7-methoxy-N-methyl-4-(phenylamino)quinoline-3-carboxamide]	< 100
CNC(=O)c1cnc2ccc(-c3ccc(CCCCCNC(=O)CNc4cccc5c4C(=O)N(C4CCC(=O)NC4=O)C5=O)nc3)cc2c1Nc1ccccc1 (stereo not drawn) [Compound 385, 4-anilino-6-[6-[5-[[2-[[2-(2,6-dioxo-3-piperidyl)-1,3-dioxo-isoindolin-4-yl]amino]acetyl]amino]pentyl]-3-pyridyl]-N-methyl-quinoline-3-carboxamide]	< 100
CNC(=O)c1cnc2cc(C(F)(F)F)c(-c3ccc(C(=O)NCCCCn4cc(CNc5cccc6c5C(=O)N(C5CCC(=O)NC5=O)C6=O)nn4)nc3)cc2c1Nc1ccccc1 (stereo not drawn) [Compound 386, 6-(6-((4-(4-(((2-(2,6-dioxopiperidin-3-yl)-1,3-dioxoisoindolin-4-yl)amino)methyl)-1H-1,2,3-triazol-1-yl)butyl)carbamoyl)pyridin-3-yl)-N-methyl-4-(phenylamino)-7-(trifluoromethyl)quinoline-3-carboxamide]	< 100
CNC(=O)c1cnc2ccc(-c3nc(C(=O)NCCCCNC(=O)CNc4cccc5c4C(=O)N(C4CCC(=O)NC4=O)C5=O)cs3)cc2c1Nc1ccccc1 (stereo not drawn) [Compound 387, 2-[4-anilino-3-(methylcarbamoyl)-6-quinolyl]-N-[4-[[2-[[2-(2,6-dioxo-3-piperidyl)-1,3-dioxo-isoindolin-4-yl]amino]acetyl]amino]butyl]thiazole-4-carboxamide]	< 100
CNC(=O)c1cnc2cc(C(F)(F)F)c(-c3ccc(C(=O)NCCCCNC(=O)CNc4cccc5c4C(=O)N(C4CCC(=O)NC4=O)C5=O)nc3)cc2c1Nc1ccccc1 (stereo not drawn) [Compound 388, 6-(6-((4-(2-((2-(2,6-dioxopiperidin-3-yl)-1,3-dioxoisoindolin-4-yl)amino)acetamido)butyl)carbamoyl)pyridin-3-yl)-N-methyl-4-(phenylamino)-7-(trifluoromethyl)quinoline-3-carboxamide]	< 100
CNc1c(C(=O)NC2CC2)cnc2cc(F)c(-c3ccc(C(=O)NCCCCCCCc4cnc5c(c4)CN(C4CCC(=O)NC4=O)C5=O)c(F)c3)cc12 (stereo not drawn) [Compound 401, N-cyclopropyl-6-[4-[7-[6-(2,6-dioxo-3-piperidyl)-7-oxo-5H-pyrrolo[3,4-b]pyridin-3-yl]heptylcarbamoyl]-3-fluoro-phenyl]-7-fluoro-4-(methylamino)quinoline-3-carboxamide]	< 100
CNc1c(C(=O)NC2CC2)cnc2cc(F)c(-c3ccc(C(=O)NCCCCCCCCc4cnc5c(c4)CN(C4CCC(=O)NC4=O)C5=O)c(F)c3)cc12 (stereo not drawn) [Compound 405, N-cyclopropyl-6-[4-[8-[6-(2,6-dioxo-3-piperidyl)-7-oxo-5H-pyrrolo[3,4-b]pyridin-3-yl]octylcarbamoyl]-3-fluoro-phenyl]-7-fluoro-4-(methylamino)quinoline-3-carboxamide]	< 100
CNc1c(C(=O)NC2CC2)cnc2cc(F)c(-c3ccc(C(=O)NCCCCCCCCc4ccc5c(n4)CN(C4CCC(=O)NC4=O)C5=O)c(F)c3)cc12 (stereo not drawn) [Compound 408, N-cyclopropyl-6-[4-[8-[6-(2,6-dioxo-3-piperidyl)-5-oxo-7H-pyrrolo[3,4-b]pyridin-2-yl]octylcarbamoyl]-3-fluoro-phenyl]-7-fluoro-4-(methylamino)quinoline-3-carboxamide]	< 100
CNc1c(C(=O)NC2CC2)cnc2cc(C(F)(F)F)c(-c3ccc(C(=O)NCCCCCCCCc4ccc5c(n4)CN(C4CCC(=O)NC4=O)C5=O)c(F)c3)cc12 (stereo not drawn) [Compound 409, N-cyclopropyl-6-[4-[8-[6-(2,6-dioxo-3-piperidyl)-5-oxo-7H-pyrrolo[3,4-b]pyridin-2-yl]octylcarbamoyl]-3-fluoro-phenyl]-4-(methylamino)-7-(trifluoromethyl)quinoline-3-carboxamide]	< 100

Other lines, results leading:

DC50 [nM]	Compound
< 100	CNC(=O)c1cnc2cc(F)c(-c3ccc(C(=O)NCCCCn4cc(CNc5cccc6c5C(=O)N(C5CCC(=O)NC5=O)C6=O)nn4)nc3)cc2c1Nc1ccccc1 (stereo not drawn) [Compound 389, 6-(6-((4-(4-(((2-(2,6-dioxopiperidin-3-yl)-1,3-dioxoisoindolin-4-yl)amino)methyl)-1H-1,2,3-triazol-1-yl)butyl)carbamoyl)pyridin-3-yl)-7-fluoro-N-methyl-4-(phenylamino)quinoline-3-carboxamide]
< 100	COc1ccc(CNc2c(C(=O)NC3CC3)cnc3cc(OC)c(-c4ccc(C(=O)NCCCCn5cc(CNc6cccc7c6C(=O)N(C6CCC(=O)NC6=O)C7=O)nn5)nc4)cc23)cc1 (stereo not drawn) [Compound 395, N-cyclopropyl-6-[6-[4-[4-[[[2-(2,6-dioxo-3-piperidyl)-1,3-dioxo-isoindolin-4-yl]amino]methyl]triazol-1-yl]butylcarbamoyl]-3-pyridyl]-7-methoxy-4-[(4-methoxyphenyl)methylamino]quinoline-3-carboxamide]
< 100	COc1cc2ncc(C(=O)NC3CC3)c(Nc3ccccc3)c2cc1-c1ccc(C(=O)NCCCCn2cc(CNc3cccc4c3C(=O)N(C3CCC(=O)NC3=O)C4=O)nn2)nc1 (stereo not drawn) [Compound 396, 4-anilino-N-cyclopropyl-6-[6-[4-[4-[[[2-(2,6-dioxo-3-piperidyl)-1,3-dioxo-isoindolin-4-yl]amino]methyl]triazol-1-yl]butylcarbamoyl]-3-pyridyl]-7-methoxy-quinoline-3-carboxamide]
< 100	CNc1c(C(=O)NC2CC2)cnc2cc(OC)c(-c3ccc(C(=O)NCCCCn4cc(CNc5cccc6c5C(=O)N(C5CCC(=O)NC5=O)C6=O)nn4)nc3)cc12 (stereo not drawn) [Compound 397, N-cyclopropyl-6-[6-[4-[4-[[[2-(2,6-dioxo-3-piperidyl)-1,3-dioxo-isoindolin-4-yl]amino]methyl]triazol-1-yl]butylcarbamoyl]-3-pyridyl]-7-methoxy-4-(methylamino)quinoline-3-carboxamide]
< 100	COc1cc2ncc(C(=O)NC3CC3)c(N)c2cc1-c1ccc(C(=O)NCCCCn2cc(CNc3cccc4c3C(=O)N(C3CCC(=O)NC3=O)C4=O)nn2)nc1 (stereo not drawn) [Compound 398, 4-amino-N-cyclopropyl-6-[6-[4-[4-[[[2-(2,6-dioxo-3-piperidyl)-1,3-dioxo-isoindolin-4-yl]amino]methyl]triazol-1-yl]butylcarbamoyl]-3-pyridyl]-7-methoxy-quinoline-3-carboxamide]
